From PubChem BioAssay AID2060360 (Molecular Pharmacology Branch, DTP, NCI, 2025)
pIC50: −log10 of the molar value. Values joined by “and” are separate entries in the source; they are usually repeats but may differ in a detail not shown here. Identical values can stand only once.

Test system: 282377-053-R-J1-PDC tumor spheroids, viability
Assay: Anticancer human tumor 282377-053-R-J1-PDC patient-derived colon adenocarcinoma cell line growth inhibition [TAK]
Details: spheroids with HUVEC and MSC; for viability, T/C: stronger effect = lower value
In short: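 Spheroids of 60% malignant cells, 25% HUVEC and 15% hMSC were exposed to targeted agents combined with TAK-243 or ipatasertib. Concentrations started at or near clinical Cmax (10 microM if unknown) and descended in half-log steps.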

[1] = curve of first compound, second compound 0.3 µM
[2] = curve of first compound, second compound 0.949 µM
[3] = curve of first compound, second compound 3 µM
[4] = curve of first compound, second compound 9.49 µM
[5] = curve of first compound, second compound 30 µM
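Also: spheroids exposed to drugs for seven days before readout.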

With `CC(C)CC(NC(=O)C(Cc1ccccc1)NC(=O)c1cnccn1)B(O)O` (configuration not stated) the viability, T/C (compound 31.6 pM) was 106% and 102%, the viability, T/C (compound 0.0001 µM) was 98.4% and 102% and the viability, T/C (compound 0.000316 µM) was 99.5% and 94.6%. For the same molecule, the viability, T/C (compound 0.001 µM) was 109% and 101%, the viability, T/C (compound 0.00316 µM) was 100% and 97.2% and the viability, T/C (compound 0.01 µM) was 93.2% and 81.1%. It also gave a pIC50 (curve of compound) of less than 8.00.

With `CC(C)n1nc(-c2ccc3oc(N)nc3c2)c2c(N)ncnc21` the viability, T/C (compound 0.000316 µM) was 99.5% and 93.2%, the viability, T/C (compound 0.001 µM) was 99% and 92.6% and the viability, T/C (compound 0.00316 µM) was 99.7% and 91.3%. For the same molecule, the viability, T/C (compound 0.01 µM) was 89.3%, the viability, T/C (compound 0.0316 µM) was 83% and 83.3% and the viability, T/C (compound 0.1 µM) was 49.6% and 59.1%. It also gave a pIC50 (curve of compound) of less than 7.00.

With `COC1CC2CCC(C)C(O)(O2)C(=O)C(=O)N2CCCCC2C(=O)OC(C(C)CC2CCC(OCCO)C(OC)C2)CC(=O)C(C)C=C(C)C(O)C(OC)C(=O)C(C)CC(C)C=CC=CC=C1C` (configuration not stated) + CC(C)NCC(C(=O)N1CCN(c2ncnc3c2C(C)CC3O)CC1)c1ccc(Cl)cc1 the pIC50 [1] was less than 7.00, the pIC50 [2] was less than 7.00 and the pIC50 [3] was less than 7.00. For the same molecule, the pIC50 [4] was less than 7.00, the pIC50 [5] was 8.07 and the viability, T/C (second compound 0.3 µM, first compound 0.000316 µM) was 93.1%. For the same molecule, the viability, T/C (second compound 0.3 µM, first compound 0.001 µM) was 91.7%, the viability, T/C (second compound 0.3 µM, first compound 0.00316 µM) was 94% and the viability, T/C (second compound 0.3 µM, first compound 0.01 µM) was 95%. The viability, T/C (second compound 0.3 µM, first compound 0.0316 µM) was 93.7%, the viability, T/C (second compound 0.3 µM, first compound 0.1 µM) was 91.4% and the viability, T/C (second compound 0.949 µM, first compound 0.000316 µM) was 93.3%. It also gave a viability, T/C (second compound 0.949 µM, first compound 0.001 µM) of 87%, a viability, T/C (second compound 0.949 µM, first compound 0.00316 µM) of 91.8% and a viability, T/C (second compound 0.949 µM, first compound 0.01 µM) of 91.8%. For the same molecule, the viability, T/C (second compound 0.949 µM, first compound 0.0316 µM) was 87.7%, the viability, T/C (second compound 0.949 µM, first compound 0.1 µM) was 89.4% and the viability, T/C (second compound 3 µM, first compound 0.000316 µM) was 82.2%. It also gave a viability, T/C (second compound 3 µM, first compound 0.001 µM) of 87.6%, a viability, T/C (second compound 3 µM, first compound 0.00316 µM) of 80.9% and a viability, T/C (second compound 3 µM, first compound 0.01 µM) of 82.2%. The viability, T/C (second compound 3 µM, first compound 0.0316 µM) was 82.2%, the viability, T/C (second compound 3 µM, first compound 0.1 µM) was 79.1% and the viability, T/C (second compound 9.49 µM, first compound 0.000316 µM) was 81.2%. It also gave a viability, T/C (second compound 9.49 µM, first compound 0.001 µM) of 77.8%, a viability, T/C (second compound 9.49 µM, first compound 0.00316 µM) of 73.5% and a viability, T/C (second compound 9.49 µM, first compound 0.01 µM) of 74.9%. The viability, T/C (second compound 9.49 µM, first compound 0.0316 µM) was 65.8%, the viability, T/C (second compound 9.49 µM, first compound 0.1 µM) was 60.4% and the viability, T/C (second compound 30 µM, first compound 0.000316 µM) was 61.6%. It also gave a viability, T/C (second compound 30 µM, first compound 0.001 µM) of 64.3%, a viability, T/C (second compound 30 µM, first compound 0.00316 µM) of 55.8% and a viability, T/C (second compound 30 µM, first compound 0.01 µM) of 48.3%. For the same molecule, the viability, T/C (second compound 30 µM, first compound 0.0316 µM) was 39.9% and the viability, T/C (second compound 30 µM, first compound 0.1 µM) was 31%.

In the case of `CC(C)(C)c1nc(-c2cccc(NS(=O)(=O)c3c(F)cccc3F)c2F)c(-c2ccnc(N)n2)s1`, the viability, T/C (compound 0.0316 µM) was 85.2% and 87.2%, the viability, T/C (compound 0.1 µM) was 84.1% and 87.2% and the viability, T/C (compound 0.316 µM) was 78.2% and 83.8%. For the same molecule, the viability, T/C (compound 1 µM) was 78.9% and 81.5%, the viability, T/C (compound 3.16 µM) was 79% and 76% and the viability, T/C (compound 10 µM) was 69.4% and 69.9%. For the same molecule, the pIC50 (curve of compound) was less than 5.00.

In the case of `CC(=O)Nc1cccc(-n2c(=O)n(C3CC3)c(=O)c3c(Nc4ccc(I)cc4F)n(C)c(=O)c(C)c32)c1`, the viability, T/C (compound 94.9 pM) was 98.3% and 96.1%, the viability, T/C (compound 0.0003 µM) was 86.1% and 84.3% and the viability, T/C (compound 0.000949 µM) was 70.9% and 75.1%. The viability, T/C (compound 0.003 µM) was 60.2% and 62.8%, the viability, T/C (compound 0.00949 µM) was 29.5% and 37.9% and the viability, T/C (compound 0.03 µM) was 13.8% and 13.7%. For the same molecule, the pIC50 (curve of compound) was 8.41 and 8.28.

With `Cn1cnc2c(F)c(Nc3ccc(Br)cc3Cl)c(C(=O)NOCCO)cc21` the viability, T/C (compound 0.00949 µM) was 89.8% and 85.2%, the viability, T/C (compound 0.03 µM) was 88.6% and 82.3% and the viability, T/C (compound 0.0949 µM) was 79% and 71.6%. The viability, T/C (compound 0.3 µM) was 76.2% and 72.7%, the viability, T/C (compound 0.949 µM) was 46.9% and 36.5% and the viability, T/C (compound 3 µM) was 21.5% and 17.7%. The pIC50 (curve of compound) was 6.06 and 6.21.

`COc1c(OCCCN2CCOCC2)ccc2c3n(c(=NC(=O)c4cnc(N)nc4)nc12)CCN3` was tested, and the viability, T/C (compound 0.00316 µM) was 101%, the viability, T/C (compound 0.01 µM) was 100% and 94.6% and the viability, T/C (compound 0.0316 µM) was 98.1% and 97.2%. The viability, T/C (compound 0.1 µM) was 98% and 87.7%, the viability, T/C (compound 0.316 µM) was 97.2% and 80.9% and the viability, T/C (compound 1 µM) was 56.2% and 19.3%. For the same molecule, the pIC50 (curve of compound) was < 6.00 and 6.26.

`CCCS(=O)(=O)Nc1ccc(F)c(C(=O)c2c[nH]c3ncc(-c4ccc(Cl)cc4)cc23)c1F` + CC(C)NCC(C(=O)N1CCN(c2ncnc3c2C(C)CC3O)CC1)c1ccc(Cl)cc1 gave a pIC50 [1] of 5.11, a pIC50 [2] of 5.16 and a pIC50 [3] of 5.12. It also gave a pIC50 [4] of 5.23, a pIC50 [5] of 5.52 and a viability, T/C (second compound 0.3 µM, first compound 0.316 µM) of 79.5%. For the same molecule, the viability, T/C (second compound 0.3 µM, first compound 1 µM) was 79.8%, the viability, T/C (second compound 0.3 µM, first compound 3.16 µM) was 82.6% and the viability, T/C (second compound 0.3 µM, first compound 10 µM) was 24.6%. For the same molecule, the viability, T/C (second compound 0.3 µM, first compound 31.6 µM) was 1.89%, the viability, T/C (second compound 0.3 µM, first compound 100 µM) was 98.5% and the viability, T/C (second compound 0.949 µM, first compound 0.316 µM) was 76.7%. The viability, T/C (second compound 0.949 µM, first compound 1 µM) was 79.9%, the viability, T/C (second compound 0.949 µM, first compound 3.16 µM) was 84.2% and the viability, T/C (second compound 0.949 µM, first compound 10 µM) was 7.58%. The viability, T/C (second compound 0.949 µM, first compound 31.6 µM) was 2.94%, the viability, T/C (second compound 0.949 µM, first compound 100 µM) was 95.3% and the viability, T/C (second compound 3 µM, first compound 0.316 µM) was 76.8%. The viability, T/C (second compound 3 µM, first compound 1 µM) was 73.7%, the viability, T/C (second compound 3 µM, first compound 3.16 µM) was 80.5% and the viability, T/C (second compound 3 µM, first compound 10 µM) was 33.4%. It also gave a viability, T/C (second compound 3 µM, first compound 31.6 µM) of 1.38%, a viability, T/C (second compound 3 µM, first compound 100 µM) of 89.3% and a viability, T/C (second compound 9.49 µM, first compound 0.316 µM) of 72.4%. It also gave a viability, T/C (second compound 9.49 µM, first compound 1 µM) of 70.1%, a viability, T/C (second compound 9.49 µM, first compound 3.16 µM) of 71.3% and a viability, T/C (second compound 9.49 µM, first compound 10 µM) of 10.9%. The viability, T/C (second compound 9.49 µM, first compound 31.6 µM) was 10.1%, the viability, T/C (second compound 9.49 µM, first compound 100 µM) was 76.7% and the viability, T/C (second compound 30 µM, first compound 0.316 µM) was 57.4%. It also gave a viability, T/C (second compound 30 µM, first compound 1 µM) of 61%, a viability, T/C (second compound 30 µM, first compound 3.16 µM) of 49.5% and a viability, T/C (second compound 30 µM, first compound 10 µM) of 9.48%. For the same molecule, the viability, T/C (second compound 30 µM, first compound 31.6 µM) was 0.93% and the viability, T/C (second compound 30 µM, first compound 100 µM) was 46.8%.
